The subject of one test is HeLa. The test is described as follows: MTT cytotoxicity assay, HeLa. The class given is cell-based. The conditions noted are these: Homo sapiens, 48 h, mean ± SD, three independent experiments. The procedure:
(§1) The in vitro cytotoxic potency of DHAA acyl-thiourea derivatives 8a–8o and 9a–9o were evaluated by 3-(4,5-dimethylthiazol-2-yl)-2,5-diphenyltetrazolium bromide (MTT) assay against HeLa, SK-OV-3 and MGC-803 tumor cell lines, with 5-FU as the positive control.
(§2) General procedure for cytotoxic evaluation in vitro: HeLa, HepG2, SK-OV-3 and MGC-803 cells were seeded into 96-well microculture plates and allowed to adhere for 24 h, respectively. After cells were exposed to compounds at concentrations from 100 to 0.01 μM for 48 h, medium was aspirated and replenished with complete medium. IC50 was evaluated by MTT tetrazolium dye assay. Each experiment was performed three times; Statistical analysis: All statistical analysis was performed with SPSS Version 10 (SPSS, Chicago, IL, USA). Data was analyzed by one-way ANOVA. Mean separations were performed using the least significant difference method. Each experiment was replicated thrice, and all experiments yielded similar results. Measurements from all the replicates were combined, and treatment effects were analyzed.
Background: Tetrazolium dyes change colour on reduction, which living cells bring about.

Another test concerns SK-OV-3. Kind of test: MTT cytotoxicity assay, SK-OV-3. It counts as cell-based. The following applies: Homo sapiens, 48 h, mean ± SD, three independent experiments. The method, then:
as §1, §2

For another test, the system named is MGC-803. The test is described as follows: MTT cytotoxicity assay, MGC-803. It counts as cell-based. The conditions noted are these: Homo sapiens, 48 h, mean ± SD, three independent experiments. The procedure: as §1, §2
Another test has as its system HL-7702. Kind of test: MTT cytotoxicity assay, HL-7702 normal cells. It counts as cell-based. The following applies: L02, 48 h, normal human cells, mean ± SD, three independent experiments. The procedure: [The source words this procedure for another cell line and reports this cell line under the same test.] as §1, §2
The subject of test [1] is HeLa cells. The test is described as follows: JC-1 mitochondrial membrane potential staining. It counts as cell-based, human. The following applies: 10 μM, 12 and 24 h. From the text:
Apoptosis plays an important role in cancer, since its induction in tumor cells is essential for successful treatment. Mitochondria play key roles in apoptosis through the release of pro-apoptotic factors such as cytochrome c and apoptosis-inducing factor [19, 20]. In order to further investigate the apoptosis-inducing effect of target compound 9n, mitochondrial membrane potential changes were designed and detected, using the fluorescent probe JC-1. […] In the control cells, JC-1 could aggregate in mitochondria and present high red fluorescence. However, in cells undergoing apoptosis, where the mitochondrial potential has collapsed, JC-1 exists in the cytosol as a monomer that emits green fluorescence. HeLa cells treated with compound 9n at 10 μM from 12 to 24 h were stained with JC-1 and cells not treated with the compound 9n were used as control for 24 h. […]
General procedure for mitochondrial membrane potential staining: JC-1 probe was employed to measure mitochondrial depolarization in […]. […] Mitochondrial membrane potentials were monitored by determining the relative amounts of dual emissions from mitochondrial JC-1 monomers or aggregates using an Nikon ECLIPSETE2000-S fluorescent microscope. Mitochondrial depolarization is indicated by an increase in the green/red fluorescence intensity ratio.

For test [2], the system named is HeLa cells. Kind of test: TUNEL assay. It counts as cell-based, human. The following applies: 10 μM, 12 and 24 h. The procedure:
To further define the mechanism of cell death caused by compound 9n, HeLa cells were treated with compound 9n at 10 μM from 12 to 24 h and the DNA fragmentation was measured by the TUNEL assay. TUNEL (terminal-deoxynucleotidyl transferase meditated nick end labeling) is a common method for identifying apoptotic cells in situ by detecting DNA fragmentation. When the genomic DNA is broken, the exposed 3ʹ-OH at the end of deoxynucleotide transfer as the catalytic plus green fluorescent probes fluorescein (FITC) labeled dUTP, which can be detected by fluorescence microscopy or flow cytometry, as indicated by a green color (in the web version). The results are illustrated in Figure 4. […] The results were in good agreement with the previous experiments.
The TUNEL method was performed to label the 3′-end of fragmented DNA of the apoptotic HeLa cells. The cells treated as indicated were fixed with 4% paraformaldehyde phosphate buffer saline, rinsed with PBS, then permeabilized by 0.1% Triton X-100 for FITC end-labeling the fragmented DNA of the apoptotic HeLa cells using TUNEL cell (Beyotime, Jiangsu, China) apoptosis detection kit. The FITC-labeled TUNEL-positive cells were imaged under a fluorescent microscopy by using 488 nm excitation and 530 nm emission.

For test [3], the system named is HeLa cells. Kind of test: Annexin V/PI apoptosis flow cytometry. The class given is cell-based, human. The following applies: 12 h, control 1.521%. The method, then:
Annexin V/PI staining was performed to distinguish apoptotic and necrotic cell deaths. The apoptosis ratios induced by compound 9n in HeLa cells were quantitatively determined by flow cytometry (Figure 5). […] Apoptosis ratios (including the early and late apoptosis ratios) for compound 9n were obtained after 12 h of treatment at the concentration of 10 and 15 μM. The apoptosis of HeLa cells treated with target compound 9n increased gradually in a concentration manner. […] The results illustrated that target compound 9n suppressed cell proliferation by inducing apoptosis.
General procedure apoptosis ratios: Prepared HeLa cells (1 × 10^6 cells/mL) were washed twice with cold PBS and then re-suspended gently in 500 μL of binding buffer. Thereafter, cells were stained in 5 μL of Annexin V-FITC and shaken well. Finally, the cells were mixed with 5 μL of PI, incubated for 20 min in the dark and subsequently analyzed using FACSCalibur (Becton Dickinson, Franklin Lakes, NJ, USA).
For orientation: Flow cytometry measures light scatter and fluorescence of single cells or particles in a stream.

The test system of test [4] is HeLa cells. Kind of test: ROS generation assay (DCF-DA). It counts as cell-based, human. The following applies: 10, 15 μM, 12 h. From the text: (§3) Mitochondria have also been implicated as a source of ROS during apoptosis. […] We herein studied whether the loss of mitochondrial transmembrane potential resulting in the generation of ROS measured as described in our previous papers , using the fluorescent probe 2,7-dichlorofluorescein diacetate (DCF-DA) determined by fluorescence microscopy. […] Calcium has long been recognized as a significant participant in cell apoptosis. Therefore, we investigated whether compound 9n inducing cell death was involved in the production of Ca^2+. To investigate the effect of compound 9n on calcium release, HeLa cells treated with compound 9n at 10 μM for 24 h were loaded with the Ca^2+ indicator Fluo-3-acetoxymethyl-ester (Fluo-3/AM, 5 µM; Beyotime, Jiangsu, China).

Test [5] deals with HeLa cells. Kind of test: Intracellular Ca2+ release (Fluo-3/AM). The class given is cell-based, human. The following applies: 10 μM, 24 h.
Text: as §3

In a further test the test system is caspase-3. The test is described as follows: Caspase-3 activation assay. The following applies: HeLa, versus control, 3 to 24 h. It counts as cell-based, human. The text has this: It is well known that an increase of intracellular ROS can lead to apoptosis. […] Caspases are a family of cysteinyl aspartate specific proteases involved in apoptosis and are dichotomized to groups of initiators (caspases 8, 9 and 10) and executioners (caspases 3, 6 and 7). Caspase-3 is able to directly degrade multiple substrates including structural and regulatory proteins. Some small molecules have been developed to be selective activators of Caspase-3 [30]. Thus, we investigated whether caspase-3 was activated when HeLa cells were exposed to compound 9n.

By IC50 is commonly meant the concentration that inhibits the measured activity by half. On to `CC(C)c1ccc2c(c1)CCC1[C@](C)(C(=O)NC(=S)N[C@H](Cc3ccccc3)C(=O)Nc3ccccn3)CCC[C@]21C` (stereo partly drawn) [Compound 9n, (1R,4aS)-7-Isopropyl-1,4a-dimethyl-N-(((R)-1-oxo-3-phenyl-1-(pyridin-2-ylamino)propan-2-yl)carbamothioyl)-1,2,3,4,4a,9,10,10a-octahydrophenanthrene-1-carboxamide], for which the IC50 in the test on HeLa was 6.58 ± 1.11 µM; in the test on SK-OV-3, 19.6 ± 1.87 µM; in the test on MGC-803, 16.9 ± 1.56 µM; in the test on HL-7702 it was 39.6 ± 1.47 µM. Further, in the test on HeLa cells [1], the “mitochondrial membrane potential change (JC-1)” value was “strong green fluorescence”. In addition, the “DNA fragmentation by TUNEL” value in the test with HeLa cells [2] is “significantly induced apoptosis”. The “apoptosis ratio (early and late)” value in the test on HeLa cells [3] (10 μM) came to 21.11%; with HeLa cells [3] (15 μM), 42.75%. In addition, in the test with HeLa cells [4], the ROS level entry is given as “induced an increase of the ROS level”. Moreover, the “intracellular Ca2+ release” value with HeLa cells [5] was “stronger green fluorescence”. Besides, the caspase-3 activity entry in the test on caspase-3 is listed as “significant increase in the activity of caspase-3”.

Values taken from publication PMC4519859, “Synthesis and Biological Evaluation of Novel Dehydroabietic Acid Derivatives Conjugated with Acyl-Thiourea Peptide Moiety as Antitumor Agents” (International Journal of Molecular Sciences, 2015).
